Source: ChEMBL document CHEMBL2073798, “P-Glycoprotein mediates the efflux of quinidine across the blood-brain barrier” (J Pharmacol Exp Ther, 1997)

Legend:
[1] = biological target: T1, ATP-dependent translocase ABCB1 (Mus musculus, UniProt P21447); assay: TP_TRANSPORTER: increase in Quinidine concentration in brain in FVB mouse; assay type: functional, organism-based; settings: in vivo
[2] = biological target: T1, ATP-dependent translocase ABCB1; assay: TP_TRANSPORTER: increase in brain concentration in mdr1a(-/-) mouse; assay type: functional, organism-based; settings: in vivo

T1 sequence (P21447 whole entry): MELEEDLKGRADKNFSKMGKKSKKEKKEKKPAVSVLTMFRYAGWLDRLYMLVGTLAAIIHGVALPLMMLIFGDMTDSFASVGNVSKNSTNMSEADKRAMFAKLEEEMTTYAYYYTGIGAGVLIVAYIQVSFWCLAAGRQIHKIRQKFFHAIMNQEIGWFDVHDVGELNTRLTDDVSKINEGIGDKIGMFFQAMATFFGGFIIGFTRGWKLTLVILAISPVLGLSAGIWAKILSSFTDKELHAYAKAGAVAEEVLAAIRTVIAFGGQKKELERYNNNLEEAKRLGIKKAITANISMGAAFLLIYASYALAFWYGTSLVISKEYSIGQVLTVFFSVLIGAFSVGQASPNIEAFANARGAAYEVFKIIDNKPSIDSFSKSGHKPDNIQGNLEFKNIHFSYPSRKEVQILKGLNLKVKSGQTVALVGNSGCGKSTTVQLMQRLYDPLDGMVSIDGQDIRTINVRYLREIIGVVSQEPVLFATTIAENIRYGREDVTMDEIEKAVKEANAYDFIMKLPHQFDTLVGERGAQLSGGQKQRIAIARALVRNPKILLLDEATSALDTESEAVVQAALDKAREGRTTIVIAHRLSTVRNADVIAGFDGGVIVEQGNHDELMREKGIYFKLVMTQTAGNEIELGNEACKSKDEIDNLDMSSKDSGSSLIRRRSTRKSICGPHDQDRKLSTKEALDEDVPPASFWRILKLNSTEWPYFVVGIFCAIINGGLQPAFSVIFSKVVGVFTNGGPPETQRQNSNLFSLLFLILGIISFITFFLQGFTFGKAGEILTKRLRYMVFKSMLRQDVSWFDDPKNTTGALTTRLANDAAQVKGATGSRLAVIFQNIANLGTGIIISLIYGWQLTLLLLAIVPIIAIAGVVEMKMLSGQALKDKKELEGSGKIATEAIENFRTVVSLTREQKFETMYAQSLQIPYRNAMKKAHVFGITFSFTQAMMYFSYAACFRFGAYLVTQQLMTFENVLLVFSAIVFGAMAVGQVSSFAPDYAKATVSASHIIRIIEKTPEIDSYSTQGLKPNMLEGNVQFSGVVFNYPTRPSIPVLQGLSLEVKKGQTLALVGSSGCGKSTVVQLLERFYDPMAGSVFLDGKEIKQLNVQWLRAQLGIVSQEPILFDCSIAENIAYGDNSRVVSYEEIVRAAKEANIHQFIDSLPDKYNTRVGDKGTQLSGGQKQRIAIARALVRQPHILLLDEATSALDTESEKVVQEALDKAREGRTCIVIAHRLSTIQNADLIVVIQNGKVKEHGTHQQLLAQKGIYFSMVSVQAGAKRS

SMILES | Activity [1] [fold] | Activity [2]
C/C=C/C[C@@H](C)C(=O)[C@H]1C(=O)N[C@@H](C(C)C)C(=O)N(C)CC(=O)N(C)[C@@H](CC(C)C)C(=O)N[C@@H](C(C)C)C(=O)N(C)[C@@H](CC(C)C)C(=O)N[C@@H](C)C(=O)N[C@H](C)C(=O)N(C)[C@@H](CC(C)C)C(=O)N(C)[C@@H](CC(C)C)C(=O)N(C)[C@@H](C(C)C)C(=O)N1C [VALSPODAR] | 10.2 | –
C=C[C@H]1C[N@@]2CC[C@H]1C[C@@H]2[C@@H](O)c1ccnc2ccc(OC)cc12 [QUINIDINE] | – | substrate [+]
